Measured values taken from the CheMixHub ionic liquid set.

Assay: xn = mol fraction of the nth substance listed

CCCCCCCC[N+](C)(CCCCCCCC)CCCCCCCC.O=S(=O)([N-]S(=O)(=O)C(F)(F)F)C(F)(F)F + O
100 kPa, x1 = 0.8468
Conditions | viscosity [mPa·s]
313.15 K | 239
343.15 K | 65

N#C[N-]S(=O)(=O)C(F)(F)F.[Li+] + CCCC[N+]1(C)CCCC1.N#C[N-]S(=O)(=O)C(F)(F)F
101 kPa, frequency 0 MHz
Conditions | electrical conductivity [S/m]
303 K, x1 = 0.1 | 0.295
318 K, x1 = 0.2 | 0.194
323 K, x1 = 0.05 | 0.706
323 K, x1 = 0.1 | 0.558

101 kPa
Conditions | viscosity [mPa·s]
303 K, x1 = 0.1 | 89.5
318 K, x1 = 0.2 | 150
323 K, x1 = 0.05 | 30.3
323 K, x1 = 0.1 | 43.5
328 K, x1 = 0.1 | 34.6

CCCC[P+](CC)(CCCC)CCCC.F[B-](F)(F)F + CC#N
viscosity [mPa·s], 100 kPa
Conditions | x1 = 0.004068 | x1 = 0.008179 | x1 = 0.01204 | x1 = 0.01601 | x1 = 0.01998 | x1 = 0.02358 | x1 = 0.02792 | x1 = 0.03171 | x1 = 0.03517 | x1 = 0.03939
293.15 K | 0.373 | 0.392 | 0.411 | 0.431 | 0.452 | 0.473 | 0.497 | 0.521 | 0.542 | 0.57
298.15 K | 0.355 | 0.374 | 0.391 | 0.41 | 0.429 | 0.448 | 0.471 | 0.494 | 0.513 | 0.539
303.15 K | 0.34 | 0.357 | 0.373 | 0.391 | 0.409 | 0.426 | 0.448 | 0.469 | 0.486 | 0.511
308.15 K | 0.326 | 0.342 | 0.356 | 0.372 | 0.389 | 0.406 | 0.426 | 0.446 | 0.462 | 0.486
313.15 K | 0.313 | 0.327 | 0.341 | 0.356 | 0.372 | 0.389 | 0.406 | 0.424 | 0.44 | 0.463
318.15 K | 0.3 | 0.313 | 0.326 | 0.341 | 0.356 | 0.37 | 0.387 | 0.404 | 0.419 | 0.44

CCCC[n+]1ccn(C)c1.O=S(=O)([O-])C(F)(F)F + NCCO
Conditions | viscosity [mPa·s]
293.15 K, 101 kPa, x2 = 0.3209 | 52.92

C=CCn1cc[n+](C)c1.[I-] + II
Conditions | electrical conductivity [S/m]
298 K, 101.3 kPa, x1 = 0.25 | 4.21

CCCCCCCC[n+]1ccn(C)c1.F[P-](F)(F)(F)(F)F + CN(C)C=O
viscosity [mPa·s], 101 kPa
Conditions | 293.15 K | 303.15 K | 313.15 K | 323.15 K | 333.15 K | 343.15 K | 353.15 K | 363.15 K
x1 = 0.002835 | 0.969 | 0.865 | 0.776 | 0.705 | 0.644 | 0.591 | 0.546 | 0.505
x1 = 0.00569 | 0.994 | 0.887 | 0.798 | 0.723 | 0.659 | 0.604 | 0.556 | 0.514
x1 = 0.01089 | 1.044 | 0.929 | 0.838 | 0.754 | 0.686 | 0.628 | 0.578 | 0.533
x1 = 0.01648 | 1.097 | 0.973 | 0.879 | 0.786 | 0.714 | 0.652 | 0.599 | 0.552
x1 = 0.02114 | 1.144 | 1.013 | 0.916 | 0.815 | 0.739 | 0.674 | 0.617 | 0.569
x1 = 0.02677 | 1.201 | 1.059 | 0.961 | 0.848 | 0.768 | 0.699 | 0.639 | 0.588

CCCC[n+]1ccn(C)c1.O=S(=O)([O-])C(F)(F)F + CN(C)c1ccccc1
Conditions | viscosity [mPa·s]
308.15 K, 100 kPa, x2 = 0 | 52.2

CCCCO + CCCC[n+]1ccn(C)c1.O=S(=O)([O-])C(F)(F)F
100 kPa, x2 = 0
Conditions | viscosity [mPa·s]
298.15 K | 2.61
303.15 K | 2.31
308.15 K | 2.07
313.15 K | 1.85
318.15 K | 1.66
323.15 K | 1.5

CCCCCCCCn1cc[n+](C)c1.[Br-] + NC(N)=O + O
298.15 K, 100 kPa
Conditions | viscosity [mPa·s]
x2 = 0, x3 = 0.9008 | 31.3
x2 = 0, x3 = 0.9487 | 7.96
x2 = 0.008063, x3 = 0.8927 | 31.3
x2 = 0.008505, x3 = 0.9402 | 7.68
x2 = 0.01609, x3 = 0.8847 | 31.2
x2 = 0.02499, x3 = 0.9237 | 7.49
x2 = 0.03154, x3 = 0.8693 | 30.7
x2 = 0.03316, x3 = 0.9155 | 7.32
x2 = 0.03874, x3 = 0.8621 | 30.7
x2 = 0.04082, x3 = 0.9079 | 7.14

CCCCCCCCn1cc[n+](C)c1.F[B-](F)(F)F + CC1COC(=O)O1
Conditions | viscosity [mPa·s]
303.15 K, 99.7 kPa, x2 = 0.4086 | 38.9

Fc1ccccn1 + Fc1cccc[nH+]1.O=S(=O)([O-])C(F)(F)F
100 kPa
Conditions | electrical conductivity [S/m]
242.8 K, x1 = 0.9 | 0.096
252.7 K, x1 = 0.9 | 0.144
262.8 K, x1 = 0.5 | 0.0069
282 K, x1 = 0.95 | 0.497
282.5 K, x1 = 0.5 | 0.023
282.5 K, x1 = 0.9 | 0.576
286.9 K, x1 = 0.95 | 0.564
292.7 K, x2 = 0.01 | 0.174
301.5 K, x1 = 0.9 | 0.75

CCCC[n+]1ccn(C)c1.O=S(=O)([O-])C(F)(F)F + CCOC(C)=O
100 kPa
Conditions | viscosity [mPa·s]
298.15 K, x1 = 0.6095 | 28.3
298.15 K, x1 = 0.8932 | 55
303.15 K, x1 = 0.3978 | 13.4
303.15 K, x1 = 1 | 67
313.15 K, x1 = 0.0991 | 0.84
313.15 K, x1 = 1 | 43.7
318.15 K, x1 = 0.1916 | 2.57
318.15 K, x1 = 1 | 36.3
323.15 K, x1 = 0.7987 | 18.2
323.15 K, x1 = 0.8932 | 22.4

CCCC[n+]1ccn(C)c1.[Cl-] + CC#N
298.15 K, 101 kPa, x2 = 0.8012
Conditions | electrical conductivity [S/m] | viscosity [mPa·s]
– | 1.53 | 3.52
